Measurements published in PubChem BioAssay (NCI).
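Compound exposure: 48 hours, 5 concentrations, 96-well plates. GI50 = concentration required for 50% inhibition of growth. TGI is the concentration that stops growth completely.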

Assays:
Assay in all cases: inhibition of tumour cell growth, NCI panel, 48 h
786-0 renal = test system: 786-0 renal
A498 renal = test system: A498 renal
A549 NSCLC = test system: A549 NSCLC
ACHN renal = test system: ACHN renal
BT-549 breast = test system: BT-549 breast
CAKI-1 renal = test system: CAKI-1 renal
CCRF-CEM leukemia = test system: CCRF-CEM leukemia
DU-145 prostate = test system: DU-145 prostate
EKVX NSCLC = test system: EKVX NSCLC
HCC-2998 colon = test system: HCC-2998 colon
HCT-116 colon = test system: HCT-116 colon
HCT-15 colon = test system: HCT-15 colon
HL-60(TB) leukemia = test system: HL-60(TB) leukemia
HOP-62 NSCLC = test system: HOP-62 NSCLC
HOP-92 NSCLC = test system: HOP-92 NSCLC
HS 578T breast = test system: HS 578T breast
IGROV1 ovarian = test system: IGROV1 ovarian
K-562 leukemia = test system: K-562 leukemia
KM12 colon = test system: KM12 colon
LOX IMVI melanoma = test system: LOX IMVI melanoma
M14 melanoma = test system: M14 melanoma
MALME-3M melanoma = test system: MALME-3M melanoma
MCF7 breast = test system: MCF7 breast
MDA-MB-231 breast = test system: MDA-MB-231 breast
MDA-MB-435 = test system: MDA-MB-435
MOLT-4 leukemia = test system: MOLT-4 leukemia
NCI-H226 lung = test system: NCI-H226 lung
NCI-H23 lung = test system: NCI-H23 lung
NCI-H460 lung = test system: NCI-H460 lung
NCI-H522 lung = test system: NCI-H522 lung
NCI/ADR-RES ovarian = test system: NCI/ADR-RES ovarian
OVCAR-3 ovarian = test system: OVCAR-3 ovarian
OVCAR-4 ovarian = test system: OVCAR-4 ovarian
OVCAR-5 ovarian = test system: OVCAR-5 ovarian
OVCAR-8 ovarian = test system: OVCAR-8 ovarian
PC-3 prostate = test system: PC-3 prostate
RPMI-8226 leukemia = test system: RPMI-8226 leukemia
RXF 393 renal = test system: RXF 393 renal
SF-268 CNS = test system: SF-268 CNS
SF-295 CNS = test system: SF-295 CNS
SF-539 CNS = test system: SF-539 CNS
SK-MEL-2 melanoma = test system: SK-MEL-2 melanoma
SK-MEL-5 melanoma = test system: SK-MEL-5 melanoma
SN12C renal = test system: SN12C renal
SR leukemia = test system: SR leukemia
SW-620 colon = test system: SW-620 colon
TK-10 renal = test system: TK-10 renal
U251 CNS = test system: U251 CNS
UACC-257 melanoma = test system: UACC-257 melanoma
UACC-62 melanoma = test system: UACC-62 melanoma
UO-31 renal = test system: UO-31 renal

## O=C1/C(=C/c2ccc(Cl)cc2Cl)N=C(c2ccccc2)N1Cc1ccco1
786-0 renal
  GI50: 19.8 µM
  TGI: 41.2 µM
A498 renal
  GI50: 22.3 µM
  TGI: 61 µM
A549 NSCLC
  GI50: 27.1 µM
  TGI: 71 µM
ACHN renal
  GI50: 11.8 µM
  TGI: 28 µM
BT-549 breast
  GI50: 27.4 µM
  TGI: 87.9 µM
CAKI-1 renal
  GI50: 30.2 µM
  TGI: 50.6 µM
CCRF-CEM leukemia
  GI50: 3.58 µM
  TGI: 7.6 µM
DU-145 prostate
  GI50: 21.1 µM
  TGI: 51 µM
EKVX NSCLC
  GI50: 27.3 µM
  TGI: 75 µM
HCC-2998 colon
  GI50: 26.7 µM
  TGI: 76.1 µM
HCT-116 colon
  GI50: 20.7 µM
  TGI: 47.1 µM
HCT-15 colon
  GI50: 37.7 µM
  TGI: > 100 µM
HL-60(TB) leukemia
  GI50: 18.3 µM
  TGI: 52.3 µM
HOP-62 NSCLC
  GI50: 18.4 µM
  TGI: 38.9 µM
HOP-92 NSCLC
  GI50: 20.7 µM
  TGI: 47.4 µM
HS 578T breast
  GI50: 22.7 µM
  TGI: 65 µM
IGROV1 ovarian
  GI50: 18.6 µM
  TGI: 51 µM
K-562 leukemia
  GI50: 41.1 µM
  TGI: > 100 µM
KM12 colon
  GI50: 33.7 µM
  TGI: > 100 µM
LOX IMVI melanoma
  GI50: 50.5 µM
  TGI: > 100 µM
M14 melanoma
  GI50: 29.1 µM
  TGI: > 100 µM
MALME-3M melanoma
  GI50: 21.2 µM
  TGI: 52.8 µM
MCF7 breast
  GI50: 13.9 µM
  TGI: 33.3 µM
MDA-MB-231 breast
  GI50: 17.6 µM
  TGI: 49.3 µM
MDA-MB-435
  GI50: 43.6 µM
  TGI: > 100 µM
MOLT-4 leukemia
  GI50: 25.8 µM
  TGI: > 100 µM
NCI-H226 lung
  GI50: 23.9 µM
  TGI: 67.6 µM
NCI-H23 lung
  GI50: 26.2 µM
  TGI: 81.6 µM
NCI-H460 lung
  GI50: 26.6 µM
  TGI: > 100 µM
NCI-H522 lung
  GI50: 18.9 µM
  TGI: 48.4 µM
NCI/ADR-RES ovarian
  GI50: 25.5 µM
  TGI: 57.9 µM
OVCAR-3 ovarian
  GI50: 22.6 µM
  TGI: 45.5 µM
OVCAR-4 ovarian
  GI50: 21.2 µM
  TGI: 50 µM
OVCAR-5 ovarian
  GI50: 34.5 µM
  TGI: > 100 µM
OVCAR-8 ovarian
  GI50: 20.5 µM
  TGI: 48.4 µM
PC-3 prostate
  GI50: 30.8 µM
  TGI: 93.9 µM
RPMI-8226 leukemia
  GI50: 23.8 µM
  TGI: 92 µM
RXF 393 renal
  GI50: 22.6 µM
  TGI: 51.8 µM
SF-268 CNS
  GI50: 20.2 µM
  TGI: 49.5 µM
SF-295 CNS
  GI50: 22.2 µM
  TGI: 45.9 µM
SF-539 CNS
  GI50: 23.7 µM
  TGI: 55.6 µM
SK-MEL-2 melanoma
  GI50: 15.8 µM
  TGI: 48.5 µM
SK-MEL-5 melanoma
  GI50: 15.8 µM
  TGI: 80.9 µM
SN12C renal
  GI50: 18.7 µM
  TGI: 36.1 µM
SR leukemia
  GI50: > 100 µM
  TGI: > 100 µM
SW-620 colon
  GI50: 46 µM
  TGI: > 100 µM
TK-10 renal
  GI50: 22.1 µM
  TGI: 49.3 µM
U251 CNS
  GI50: 20.5 µM
  TGI: 40.5 µM
UACC-257 melanoma
  GI50: 36.5 µM
  TGI: > 100 µM
UACC-62 melanoma
  GI50: 18.1 µM
  TGI: 41.6 µM
UO-31 renal
  GI50: 23.9 µM
  TGI: > 100 µM
